Here are results for 13 compounds from ChEMBL document CHEMBL2040549, “Inhibition of cap (m7GpppXm)-dependent endonuclease of influenza virus by 4-substituted 2,4-dioxobutanoic acid compounds” (Antimicrob Agents Chemother, 1994).

As a reminder, the IC50 is the midpoint of a concentration-inhibition curve.

Some results are limits rather than exact numbers.

This assay deals with Polymerase acidic protein (Influenza A virus (A/Puerto Rico/8/1934(H1N1)), UniProt P03433). Put plainly: Inhibition of cap 1 ALMV primed Influenza transcriptase.
`O=C(O)C(=O)CCc1ccccc1` displayed an IC50 greater than 500 µM.
`O=C(CC(O)C(=O)O)c1ccccc1` (stereo not drawn) came in with an IC50 greater than 500 µM.
`O=C(O)/C(O)=C/C(=O)C1(Cc2ccc(Cl)cc2)CCCN(S(=O)(=O)Cc2ccccc2)C1` (stereo not drawn) came in with an IC50 of 0.19 µM.
Consider `O=C(O)/C(O)=C/C(=O)C1CCCCC1`, for which 29.4 µM corresponded to half-maximal inhibition (IC50).
Compound `CC(C)C(=O)/C=C(\O)C(=O)O` displayed an IC50 of 56.7 µM.
Compound `CC(=O)/C=C(\O)C(=O)O` registered an IC50 of 307 µM.
For the compound `NC(CC(=O)c1ccccc1)C(=O)O` (stereo not drawn), the IC50 is greater than 500 µM.
Under `O=C(O)/C(O)=C/S(=O)(=O)c1ccccc1` stands greater than 500 µM; under `O=C(O)/C(O)=C/c1cc2ccccc2o1`, greater than 500 µM; under `O=C(O)/C(O)=C/c1nc2ccccc2s1`, greater than 500 µM.
As to `Cn1c(/C=C(\O)C(=O)O)nc2ccccc21`, the IC50 is greater than 500 µM.
For `O=C(O)/C(O)=C/c1nc2ccccc2o1`, the IC50 came out at 100 µM.
Regarding `NC(=O)/C(O)=C/C(=O)C1CCCCC1`, the IC50 is greater than 500 µM.
